Experimental data from patent publication EP4722205A1, “HETEROCYCLIC COMPOUND AND NOXIOUS ARTHROPOD-CONTROLLING COMPOSITION CONTAINING SAME” (Sumitomo Chemical Company, Limited, priority 2023, dated 2024).

Legend:
Type in all cases: in vivo
[1] = test system: cotton aphids (Aphis gossypii); assay: Test Method 1: foliar spray on cucumber seedling infested with cotton aphids (Formulation example 1); conditions: 120 h, spray 10 mL/seedling, examined after 5 days, 25°C, read-out: controlling value
[2] = test system: cotton worm (Spodoptera litura); assay: Test Method 3: sprayed cabbage leaves fed to second instar cotton worm; conditions: 120 h, second instar larvae, after 5 days, 25°C, read-out: mortality of insects
Experimental: (§1) The following tests in the test examples below were conducted at 25°C.
(§2) Cabbage (Brassicae oleracea) seedling (on the developmental stage of the second to third true leaf) is planted in a cup, and the diluted solutions are sprayed into the seedling at a ratio of 20 mL/seedling. Thereafter, the stem and leaf thereof are cut out and then is installed into a cup that is covered with filter paper on the bed of the cup. Five (5) cotton worm (Spodoptera litura) at the second instar larval stage are released into the cup. After 5 days, the number of the surviving insects is counted, and the mortality of insects is calculated by the following equation. [formula]

[3] = test system: diamondback moth (Plutella xylostella); assay: Test Method 4: sprayed cabbage leaves fed to second instar diamondback moth; conditions: 120 h, second instar larvae, after 5 days, 25°C, read-out: mortality of insects
Experimental: Next, an efficacy of the present compound on controlling harmful arthropods is shown by Test examples. The following tests in the test examples below were conducted at 25°C.
Test compounds are made to a formulation according to a similar method to that described in the Formulation example 1, and thereto is added water containing 0.03 v/v% of Shindain (registered trademark) to prepare a diluted solution containing a prescribed concentration of the test compound.
as §2, with “diamondback moth (Plutella xylostella)” for “cotton worm (Spodoptera litura)”

[4] = test system: cotton aphids (Aphis gossypii); assay: Test Method 11: foliar spray on cucumber seedling infested with cotton aphids (Formulation example 5); conditions: 120 h, spray 10 mL/seedling, examined after 5 days, 25°C, read-out: controlling value
[5] = test system: cotton worm (Spodoptera litura); assay: Test Method 9: sprayed cabbage seedling, third instar cotton worm (Formulation example 5); conditions: 144 h, third instar larvae, after 6 days, 25°C, read-out: controlling value
Experimental: as §1
(§3) Cabbage (Brassicae oleracea) seedling (on the developmental stage of the third to fourth true leaf) is planted in a cup, and the diluted solutions are sprayed into the seedling at a ratio of 20 mL/seedling. Thereafter, ten (10) cotton worm (Spodoptera litura) at the third instar larval stage are released onto the seedling. After 6 days, the number of the surviving insects is counted, and the mortality of insects is calculated by the following equation. [formula]

[6] = test system: diamondback moth (Plutella xylostella); assay: Test Method 10: sprayed cabbage seedling, third instar diamondback moth (Formulation example 5); conditions: 144 h, third instar larvae, after 6 days, 25°C, read-out: controlling value
Experimental: as §1
as §3, with “diamondback moth (Plutella xylostella)” for “cotton worm (Spodoptera litura)”

[7] = test system: common house mosquitos (Culex pipiens pallens); assay: Test Method 12: mosquito larvae released into diluted solution; conditions: 24 h, last instar larvae, after 1 day, 25°C, read-out: controlling value
Experimental: as §1
Into the diluted solution, 30 common house mosquitos (Culex pipiens pallens) at the last instar larval stage are released, and after 1 day, the state of the house mosquito larvae is examined, and the mortality of insects is calculated by the following equation. [formula]

Row | SMILES | mortality at 500 ppm [1] [%] | mortality at 500 ppm [2] [%] | mortality at 500 ppm [3] [%] | mortality at 50 ppm [4] [%] | mortality at 200 ppm [4] [%] | mortality at 50 ppm [5] [%] | mortality at 200 ppm [5] [%] | mortality at 50 ppm [6] [%] | mortality at 200 ppm [6] [%] | mortality at 3.5 ppm [7] [%]
1 | CCSc1c(C(=O)N(C)c2nc3ccc(F)cc3s2)nc2ccc(I)cn12 [compound 2] | ≥ 90 | ≥ 80 | ≥ 80 |  |  |  |  |  |  | 
2 | CCSc1c(C(=O)N(C)c2nc3cc(F)ccc3s2)nc2ccc(I)cn12 [compound 3] |  | ≥ 80 | ≥ 80 |  |  |  |  |  |  | 
3 | CCSc1c(C(=O)N(C)c2nc3cccc(F)c3o2)nc2ccc(I)cn12 [compound 18] | ≥ 90 |  | ≥ 80 |  |  |  |  |  |  | 
4 | CCS(=O)(=O)c1c(C(=O)N(C)c2nc3cc(F)ccc3s2)nc2ccc(I)cn12 [compound 24] | ≥ 90 | ≥ 80 | ≥ 80 | ≥ 90 | ≥ 90 | ≥ 80 | ≥ 80 | ≥ 80 | ≥ 80 | 
5 | CCS(=O)(=O)c1c(C(=O)N(C)c2nc3cccc(Cl)c3s2)nc2ccc(I)cn12 [compound 27] | ≥ 90 | ≥ 80 |  | ≥ 90 | ≥ 90 | ≥ 80 | ≥ 80 |  |  | 
6 | CCS(=O)(=O)c1c(C(=O)N(C)c2nc3ccc(C)cc3s2)nc2ccc(I)cn12 [compound 32] |  | ≥ 80 | ≥ 80 |  |  |  |  | ≥ 80 | ≥ 80 | 
7 | CCS(=O)(=O)c1c(C(=O)N(C)c2nc3cccc(F)c3o2)nc2ccc(I)cn12 [compound 39] |  |  | ≥ 80 |  |  |  |  |  |  | 
8 | CCSc1cccnc1C(=O)N(C)c1nc2cc(C(F)(F)F)ccc2s1 [compound 49] |  | ≥ 80 | ≥ 80 |  |  |  |  |  |  | 
9 | CCS(=O)(=O)c1cccnc1C(=O)N(C)c1nc2cc(C(F)(F)F)ccc2o1 [compound 54] | ≥ 90 |  | ≥ 80 |  |  |  |  |  |  | 
10 | CCS(=O)(=O)c1cccnc1C(=O)N(C)c1nc2cc(C(F)(F)F)ccc2s1 [compound 55] | ≥ 90 |  | ≥ 80 |  |  |  |  |  |  | 
11 | CCS(=O)(=O)c1cc(-c2ccc(C#N)cc2)cnc1C(=O)N(C)c1nc2cc(F)c(F)cc2s1 [compound 60] |  |  | ≥ 80 |  |  |  |  |  |  | 
12 | CCSc1c(C(=O)N(C)c2nc3ccc(F)cc3n2C)nc2ccc(I)cn12 [compound 69] | ≥ 90 |  | ≥ 80 | ≥ 90 | ≥ 90 |  |  |  |  | 
13 | CCS(=O)(=O)c1c(C(=O)N(C)c2nc3ccc(F)nc3s2)nc2ccc(I)cn12 [compound 75] | ≥ 90 | ≥ 80 | ≥ 80 |  | ≥ 90 |  | ≥ 80 |  | ≥ 80 | 
14 | CCS(=O)(=O)c1c(C(=O)N(C)c2nc3ccc(F)cc3n2C)nc2ccc(I)cn12 [compound 78] | ≥ 90 | ≥ 80 | ≥ 80 | ≥ 90 | ≥ 90 |  |  |  | ≥ 80 | 
15 | CCS(=O)(=O)c1c(C(=O)N(C)c2nc3cc(F)ccc3n2C)nc2ccc(I)cn12 [compound 79] | ≥ 90 | ≥ 80 | ≥ 80 | ≥ 90 | ≥ 90 |  | ≥ 80 |  | ≥ 80 | 
16 | CCS(=O)(=O)c1c(C(=O)N(C)c2nc3cc(F)cc(F)c3s2)nc2ccc(I)cn12 [compound 80] |  | ≥ 80 | ≥ 80 |  |  |  | ≥ 80 |  | ≥ 80 | 
17 | CCS(=O)(=O)c1c(C(=O)N(C)c2nc3cc(F)c(Cl)cc3s2)nc2ccc(I)cn12 [compound 81] |  |  | ≥ 80 |  |  |  |  |  |  | 

Row | SMILES | mortality at 500 ppm [1] [%] | mortality at 500 ppm [2] [%] | mortality at 500 ppm [3] [%] | mortality at 50 ppm [4] [%] | mortality at 200 ppm [4] [%] | mortality at 50 ppm [5] [%] | mortality at 200 ppm [5] [%] | mortality at 50 ppm [6] [%] | mortality at 200 ppm [6] [%] | mortality at 3.5 ppm [7] [%]
18 | CCN(C(=O)c1nc2ccc(I)cn2c1S(=O)(=O)CC)c1nc2cc(F)c(F)cc2s1 [compound 96] | ≥ 90 | ≥ 80 | ≥ 80 | ≥ 90 | ≥ 90 |  |  |  |  | 
19 | CCS(=O)(=O)c1c(C(=O)N(CC#N)c2nc3cc(F)c(F)cc3s2)nc2ccc(I)cn12 [compound 98] |  |  | ≥ 80 |  |  |  |  |  |  | 
20 | C#CCN(C(=O)c1nc2ccc(I)cn2c1S(=O)(=O)CC)c1nc2cc(F)c(F)cc2s1 [compound 99] |  |  | ≥ 80 |  |  |  |  |  |  | 
21 | CCS(=O)(=O)c1c(C(=O)N(C)c2nc3cc(F)c(F)cc3s2)nc2ccc(C3CC3)cn12 [compound 102] | ≥ 90 | ≥ 80 | ≥ 80 | ≥ 90 | ≥ 90 | ≥ 80 | ≥ 80 | ≥ 80 | ≥ 80 | 
22 | CCS(=O)(=O)c1cc(-c2ccc(F)cn2)cnc1C(=O)N(C)c1nc2cc(F)c(F)cc2s1 [compound 110] |  | ≥ 80 | ≥ 80 |  |  | ≥ 80 | ≥ 80 | ≥ 80 | ≥ 80 | ≥ 90
23 | CCS(=O)(=O)c1cc(-n2cc(Cl)cn2)cnc1C(=O)N(C)c1nc2cc(F)c(F)cc2s1 [compound 112] |  | ≥ 80 | ≥ 80 |  |  | ≥ 80 | ≥ 80 |  | ≥ 80 | 
24 | CCS(=O)(=O)c1cccnc1C(=O)N(C)c1nc2cc(F)c(F)cc2s1 [compound 114] |  | ≥ 80 | ≥ 80 |  |  |  |  |  |  | 
25 | CCS(=O)(=O)c1cc(C(F)(F)F)ccc1C(=O)N(C)c1nc2cc(F)c(F)cc2s1 [compound 120] |  | ≥ 80 | ≥ 80 |  |  | ≥ 80 | ≥ 80 | ≥ 80 | ≥ 80 | 
26 | CCCOc1cnc(C(=O)N(C)c2nc3cc(F)c(F)cc3s2)c(S(=O)(=O)CC)c1 [compound 126] |  | ≥ 80 | ≥ 80 |  | ≥ 90 | ≥ 80 | ≥ 80 |  | ≥ 80 | 
27 | CCS(=O)(=O)c1cc(OC(C)(C)C)cnc1C(=O)N(C)c1nc2cc(F)c(F)cc2s1 [compound 128] | ≥ 90 | ≥ 80 | ≥ 80 |  | ≥ 90 | ≥ 80 | ≥ 80 | ≥ 80 | ≥ 80 | 
28 | CCS(=O)(=O)c1ccc(NC(=O)OC(C)(C)C)nc1C(=O)N(C)c1nc2cc(F)c(F)cc2s1 [compound 129] |  | ≥ 80 | ≥ 80 |  |  |  | ≥ 80 |  | ≥ 80 | ≥ 90
29 | CCS(=O)(=O)c1ccc(-c2ccccn2)nc1C(=O)N(C)c1nc2cc(F)c(F)cc2s1 [compound 133] |  | ≥ 80 | ≥ 80 |  | ≥ 90 | ≥ 80 | ≥ 80 |  | ≥ 80 | 
30 | CCS(=O)(=O)c1ccc(NCCCN(C)C)nc1C(=O)N(C)c1nc2cc(F)c(F)cc2s1 [compound 136] |  |  | ≥ 80 |  |  |  |  |  | ≥ 80 | ≥ 90
31 | CCS(=O)(=O)c1ccc(Nc2ccc(C)cc2)nc1C(=O)N(C)c1nc2cc(F)c(F)cc2s1 [compound 137] |  |  | ≥ 80 |  |  |  |  |  |  | 
32 | CCS(=O)(=O)c1c(C(=O)N(C)c2nc3cc(F)c(F)cc3s2)nc(Br)n1C [compound 140] |  |  | ≥ 80 |  |  |  |  |  | ≥ 80 | 
33 | CCS(=O)(=O)c1c(C(=O)N(C)c2nc3cc(F)c(F)cc3s2)nc(-c2cnn(C(F)F)c2)n1C [compound 143] |  | ≥ 80 | ≥ 80 |  |  |  |  |  |  | 
34 | CCS(=O)(=O)c1c(C(=O)N(C)c2nc3cc(Cl)c(F)cc3s2)nn(C)c1C1CC1 [compound 145] |  |  | ≥ 80 |  |  |  |  |  | ≥ 80 | 
